The text below walks through data of PubChem BioAssay (NCI).

Among the test systems are BT-549 breast; COLO 205 colon; DU-145 prostate; HOP-62 NSCLC; HS 578T breast; NCI-H460 lung; SF-268 CNS; SK-MEL-5 melanoma; MALME-3M melanoma; OVCAR-4 ovarian.
What all share (assay): NCI anticancer screen, dose series, 48 h

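Values below derive from 48-hour exposures of cells grown in 96-well plates, with endpoints linearly interpolated between the two concentrations bracketing the appropriate inhibition level. Here, GI50 denotes the concentration required for 50% inhibition of growth. TGI: concentration producing complete growth inhibition.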

As to `CCOC1Oc2ccccc2C(=O)/C1=C\Nc1ccc(C(=O)O)c(O)c1` (stereo not given), the GI50 with BT-549 breast was 26.4 µM; in the test on COLO 205 colon it was 23.9 µM; in the test on DU-145 prostate, 34.1 µM; in the test with HOP-62 NSCLC, 32.4 µM; with HS 578T breast, 35 µM; in the test on NCI-H460 lung it was 38.9 µM. Besides, the results for the GI50 in the test on SF-268 CNS and in the test on SK-MEL-5 melanoma were 26.1 µM and 18.6 µM, respectively. Besides, the TGI was 87.5 µM with BT-549 breast; 56.5 µM with COLO 205 colon; more than 100 µM in the test with DU-145 prostate; more than 100 µM in the test with HOP-62 NSCLC; 90 µM in the test with HS 578T breast; more than 100 µM with NCI-H460 lung. The TGI with SF-268 CNS is 80.8 µM; in the test with SK-MEL-5 melanoma, 37.4 µM.
`O=C(O)C1C2C=CC(O2)C1C(=O)NCc1ccncc1` (stereo not given): the TGI with COLO 205 colon, in the test on DU-145 prostate, with HOP-62 NSCLC, with HS 578T breast, in the test with MALME-3M melanoma and in the test with NCI-H460 lung was more than 100 µM in each case. Also, the TGI in the test on OVCAR-4 ovarian, with SF-268 CNS and in the test with SK-MEL-5 melanoma was more than 100 µM each time.
As to `Oc1ccccc1/C=N\Nc1ccccc1`, the GI50 with BT-549 breast was 3.19 µM; with COLO 205 colon, 5.92 µM; in the test on DU-145 prostate, 15.8 µM; in the test with HOP-62 NSCLC, 21.9 µM; in the test on MALME-3M melanoma, 3.72 µM; with NCI-H460 lung it was 3.36 µM. Also, the GI50 was 24.8 µM in the test with OVCAR-4 ovarian, 18.6 µM in the test with SF-268 CNS and 3.59 µM with SK-MEL-5 melanoma. Also, the TGI was 25.4 µM with BT-549 breast; 21.3 µM in the test with COLO 205 colon; more than 100 µM with DU-145 prostate; more than 100 µM in the test on HOP-62 NSCLC; 21.7 µM in the test on MALME-3M melanoma; more than 100 µM in the test on NCI-H460 lung. The results for the TGI in the test on OVCAR-4 ovarian, in the test on SF-268 CNS and with SK-MEL-5 melanoma were more than 100 µM, more than 100 µM and 19.8 µM, respectively.
`Cc1nccc2c3ccc(OCc4cn(-c5ccc(Br)cc5)nn4)cc3n(CCCc3ccccc3)c12`: the GI50 in the test with BT-549 breast is 2.47 µM; with DU-145 prostate, 5.2 µM; in the test with HOP-62 NSCLC it was 3.16 µM; with HS 578T breast, 1.31 µM; in the test on MALME-3M melanoma it was 1.62 µM; with NCI-H460 lung, 3.03 µM. For the same molecule, the results for the GI50 in the test with SF-268 CNS and in the test on SK-MEL-5 melanoma were 2.17 µM and 3.92 µM, respectively. For the same molecule, the TGI in the test on BT-549 breast is 7.48 µM; in the test on DU-145 prostate it was more than 100 µM; with HOP-62 NSCLC it was 29.6 µM; with HS 578T breast, 4.56 µM; in the test on MALME-3M melanoma, 3.57 µM; in the test with NCI-H460 lung, more than 100 µM. Besides, the TGI with SF-268 CNS was 5.85 µM; in the test with SK-MEL-5 melanoma it was more than 100 µM.
Consider `CCCCCCCCCCCCCC(=O)NO`, for which the TGI is 33.1 µM in the test on BT-549 breast; 20.1 µM in the test with COLO 205 colon; 29.6 µM in the test on DU-145 prostate; 34.6 µM with HOP-62 NSCLC; 83.8 µM in the test with MALME-3M melanoma; 38.3 µM with NCI-H460 lung. Besides, the values for the TGI with OVCAR-4 ovarian, with SF-268 CNS and in the test on SK-MEL-5 melanoma were 39.3 µM, 26.9 µM and 26.5 µM, respectively.
For the molecule `CN(C)c1ccc(/C=N/n2c(CCCCc3n[nH]c(=S)n3/N=C/c3ccc(N(C)C)cc3)n[nH]c2=S)cc1`, the GI50 is more than 100 µM in the test with COLO 205 colon; more than 100 µM with DU-145 prostate; 66.8 µM in the test with HOP-62 NSCLC; 73.8 µM in the test with HS 578T breast; more than 100 µM in the test with MALME-3M melanoma; more than 100 µM with NCI-H460 lung. The GI50 in the test with OVCAR-4 ovarian, in the test on SF-268 CNS and in the test with SK-MEL-5 melanoma was more than 100 µM in each case. Also, the TGI in the test on COLO 205 colon, in the test on DU-145 prostate, with HOP-62 NSCLC, in the test with HS 578T breast, in the test on MALME-3M melanoma and in the test on NCI-H460 lung was more than 100 µM throughout. The TGI in the test on OVCAR-4 ovarian, in the test with SF-268 CNS and in the test on SK-MEL-5 melanoma was more than 100 µM each time.
Turning to `Cn1c2ccccc2c2c(=O)n(CCCC(=O)NCCc3cnc[nH]3)c3c(-c4ccccc4)nnn3c21`, the GI50 in the test with COLO 205 colon is 8.51 µM; in the test on DU-145 prostate, 6.88 µM; with HOP-62 NSCLC, 7.67 µM; with HS 578T breast it was 10.4 µM; with MALME-3M melanoma it was 7.55 µM; in the test with NCI-H460 lung it was 10.9 µM. In addition, the results for the GI50 with OVCAR-4 ovarian, in the test with SF-268 CNS and with SK-MEL-5 melanoma were 10.1 µM, 11.7 µM and 9.09 µM, respectively. In addition, the TGI came to 19.6 µM in the test on COLO 205 colon; 13.8 µM in the test on DU-145 prostate; 16.9 µM with HOP-62 NSCLC; 22.6 µM in the test on HS 578T breast; 16.7 µM in the test with MALME-3M melanoma; 24.3 µM in the test on NCI-H460 lung. The results for the TGI with OVCAR-4 ovarian, in the test on SF-268 CNS and with SK-MEL-5 melanoma were 20.5 µM, 31.6 µM and 17.2 µM, respectively.
As to `CCN(CC)CCNc1ccc(N=Nc2cnc3ccccc3c2)c2ccccc12`, the GI50 with COLO 205 colon is 1.61 µM; in the test on DU-145 prostate, 1.83 µM; with HOP-62 NSCLC it was 1.66 µM; with HS 578T breast, 2.62 µM; in the test on NCI-H460 lung it was 1.72 µM; in the test on OVCAR-4 ovarian, 1.85 µM. Further, the GI50 is 1.74 µM in the test with SF-268 CNS and 1.67 µM in the test with SK-MEL-5 melanoma. In addition, the TGI in the test with COLO 205 colon came out at 2.98 µM; in the test with DU-145 prostate it was 3.22 µM; in the test with HOP-62 NSCLC, 3.02 µM; in the test on HS 578T breast it was 7.3 µM; with NCI-H460 lung, 3.18 µM; with OVCAR-4 ovarian it was 3.88 µM. Further, the TGI in the test on SF-268 CNS is 3.48 µM; in the test on SK-MEL-5 melanoma, 3.03 µM.
